Consider two molecules from US20250282728A1, “NITROGEN COMPRISING HETEROCYCLIC DERIVATIVES FOR THE TREATMENT OF DISORDERS ASSOCIATED WITH GPR55 RECEPTOR” (Cerevance, Inc., priority 2022, published 2025).

pEC50: −log10 of the molar value.

One assay addresses T1, human GPR55 (Homo sapiens, UniProt Q9Y2T6).
T1 construct: expressed in transfected cells; host or cells: HEK293 (human embryonic kidney) cells
The assay can be described thus: Ca2+ mobilization assay (FLIPR, Calcium5 dye), human GPR55. The assay is classed as cell-based. The conditions noted are these: HEK293 cells co-expressing PK-tagged human GPR55 and EA-tagged beta-arrestin; intracellular calcium increase. The essentials:
(§1)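 HEK293 cells co-expressing PK-tagged human or rat GPR55 and EA-tagged beta-arrestin were loaded with Calcium5 dye for 1 hour at 37° C in HEPES/HBSS buffer, pH 7.4, with probenecid and 0.1% BSA. Compound dilution series were added in duplicate and calcium rise followed by FLIPR fluorescence; response = maximum minus minimum.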
(A change in cytosolic calcium serves as a functional read-out for many receptors and channels.)

The next assay has as its target T2, rat GPR55 (Rattus norvegicus, UniProt F1MAK4).
T2 construct: expressed in transfected cells; host or cells: HEK293 (human embryonic kidney) cells
T2 sequence (F1MAK4 1-319): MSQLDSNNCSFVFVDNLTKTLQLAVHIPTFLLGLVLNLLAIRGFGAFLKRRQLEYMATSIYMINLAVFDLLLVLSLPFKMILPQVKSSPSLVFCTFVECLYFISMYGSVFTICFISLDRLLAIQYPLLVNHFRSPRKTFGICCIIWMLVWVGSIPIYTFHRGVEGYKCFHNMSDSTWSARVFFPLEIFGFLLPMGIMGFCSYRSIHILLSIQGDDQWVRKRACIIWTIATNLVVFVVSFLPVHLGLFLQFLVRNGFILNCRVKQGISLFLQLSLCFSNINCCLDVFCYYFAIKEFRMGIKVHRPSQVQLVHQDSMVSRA
In words: Ca2+ mobilization assay (FLIPR, Calcium5 dye), rat GPR55. In kind it is cell-based. The conditions noted are these: HEK293 cells co-expressing PK-tagged rat GPR55 and EA-tagged beta-arrestin; intracellular calcium increase. The essentials:
as §1

Assay [1] relates to striatal medium spiny neurons. In words: Electrophysiology assay: whole-cell patch clamp, firing frequency. The assay is classed as cell-based, Wistar rat. The conditions noted are these: rat striatal cultures, current steps 10-200 pA. The method, then: Selected compounds were tested in electrophysiology.
Striatal cultures were prepared as follows. Wistar rat embryos (E18) were sacrificed by cervical dislocation and brains removed into an ice-cold hanks balanced salt solution (HBSS) containing 10 mM HEPES, 1 mM sodium pyruvate and 0.035% sodium bicarbonate. The brain was hemisected, striata removed and placed in a papain solution (Worthington LK003150) for 10 min at 37° C. Tissue was then vigorously triturated until devoid of clumps, passed through a 70 μm mesh filter and centrifuged at 1000 rcf for 5 min. Supernatant was discarded and cells resuspended and centrifuged once more through an ovomucoid gradient before final resuspension in plating medium (containing EMEM 75%, FBS 10%, glutamate 12.5 μM, GlutaMax 0.5 mM, sodium pyruvate 10 mM, glucose 33.3 mM, HEPES […]). Cells were counted and spot plated onto 13 mm coverslips at a density of 200K. After 3 h, solution was topped up to 1 ml with growth medium (containing NBplus 98%, B27plus 2%, GlutaMax 0.5 mM). […]
Whole-cell patch clamp recordings were performed from visually identified medium spiny neurons. A step protocol was applied to inject current into the cell (10-200 pA, 10 pA steps, 500 ms) and resulting action potentials recorded. […] Frequency of firing was analysed off-line using Clampfit software.
(In patch-clamp work, channel activity is measured electrically.)

T1 sequence (Q9Y2T6 whole entry): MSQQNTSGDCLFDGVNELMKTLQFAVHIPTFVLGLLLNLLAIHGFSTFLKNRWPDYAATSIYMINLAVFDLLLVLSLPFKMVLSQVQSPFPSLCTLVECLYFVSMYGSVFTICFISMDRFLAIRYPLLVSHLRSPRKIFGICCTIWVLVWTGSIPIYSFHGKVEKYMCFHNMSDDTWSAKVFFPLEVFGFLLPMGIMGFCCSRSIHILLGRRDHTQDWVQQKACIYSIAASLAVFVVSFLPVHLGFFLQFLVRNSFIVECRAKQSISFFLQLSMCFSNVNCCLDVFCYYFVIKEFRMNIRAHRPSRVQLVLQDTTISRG

For orientation: pEC50 means the negative decadic logarithm of the EC50, by convention in mol/L. Regarding `COc1cncc(-c2ccc(N[C@H](C)c3ccc(F)cc3)nc2)c1` [Example 6, (R)-N-(1-(4-fluorophenyl)ethyl)-5′-methoxy-[3,3′-bipyridin]-6-amine], the figures for the pEC50 on human GPR55 and at rat GPR55 were no less than 6.70 and no less than 7.30, respectively. The “firing frequency of medium spiny neurons relative to baseline” value in assay [1] (10 μM, FIG. 2) is on record as “significantly reduced the frequency”.

Consider `C[C@@H](Nc1cnc(-c2cncc(CC(F)F)c2)cn1)c1ccc(F)cc1` [Example 31, (R)-5-(5-(2,2-difluoroethyl)pyridin-3-yl)-N-(1-(4-fluorophenyl)ethyl)pyrazin-2-amine], for which the pEC50 on human GPR55 and at rat GPR55 was no less than 7.30 each time. Also, the “firing frequency of medium spiny neurons relative to baseline” value in assay [1] (1 μM, FIG. 3) is recorded as “significantly reduced the frequency”.
